Data: the supplement of paper PMC10307832

Legend:
Assay in all cases: relative viability (nuclei count vs DMSO), 5 days (fraction); higher = more cells survive
201T = test system: 201T
In short: (§1)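 Lung cancer cell lines were seeded in 1536-well plates and dosed by pin tool the next day, with either a single drug or a fixed anchor-drug dose combined with five library-drug doses (not always all listed) spaced in √10 steps. Five days later, one step fixed the cells and stained their nuclei (final 0.05% Triton X-100, 1% formaldehyde, 1 ug/ml Hoechst), and nuclei were counted on 4× images. Relative viability is the nuclei count in treated wells divided by the count in vehicle wells, and each value is the median of duplicate plates.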

A-427 = test system: A-427
In short: as §1

BEN = test system: BEN
In short: as §1

COR-L 105 = test system: COR-L 105
In short: as §1

COR-L23 = test system: COR-L23
In short: as §1

EKVX = test system: EKVX
In short: as §1

HARA = test system: HARA
In short: as §1

HCC-15 = test system: HCC-15
In short: as §1

HCC-44 = test system: HCC-44
In short: as §1

HCC-827 = test system: HCC-827
In short: as §1

LK-2 = test system: LK-2
In short: as §1

NCI-H1437 = test system: NCI-H1437
In short: as §1

NCI-H1666 = test system: NCI-H1666
In short: as §1

NCI-H1792 = test system: NCI-H1792
In short: as §1

NCI-H1975 = test system: NCI-H1975
In short: as §1

NCI-H23 = test system: NCI-H23
In short: as §1

NCI-H358 = test system: NCI-H358
In short: as §1

NCI-H441 = test system: NCI-H441
In short: as §1

NCI-H596 = test system: NCI-H596
In short: as §1

NCI-H650 = test system: NCI-H650
In short: as §1

NCI-H838 = test system: NCI-H838
In short: as §1

SK-MES-1 = test system: SK-MES-1
In short: as §1

O=C(O)c1ccc(-c2c[nH]c3ncc(-c4ccccc4)cc23)cc1C1CCCC1 + C[C@@H](Oc1cc(-c2cnn(C3CCNCC3)c2)cnc1N)c1c(Cl)ccc(F)c1Cl [Crizotinib] (partner 1 µM)
relative viability (201T; first compound 0.04 µM): 1.06 | relative viability (201T; first compound 0.1265 µM): 1.04 | relative viability (201T; first compound 0.4 µM): 0.941 | relative viability (201T; first compound 1.265 µM): 0.979 | relative viability (A-427; first compound 0.04 µM): 0.941 | relative viability (A-427; first compound 0.1265 µM): 0.845 | relative viability (A-427; first compound 0.4 µM): 0.86 | relative viability (A-427; first compound 1.265 µM): 0.852 | relative viability (BEN; first compound 0.04 µM): 0.89 | relative viability (BEN; first compound 0.1265 µM): 0.996 | relative viability (BEN; first compound 0.4 µM): 0.885 | relative viability (BEN; first compound 1.265 µM): 0.774 | relative viability (COR-L 105; first compound 0.04 µM): 0.857 | relative viability (COR-L 105; first compound 0.1265 µM): 0.789 | relative viability (COR-L 105; first compound 0.4 µM): 0.723 | relative viability (COR-L 105; first compound 1.265 µM): 0.792 | relative viability (COR-L23; first compound 0.04 µM): 0.584 | relative viability (COR-L23; first compound 0.1265 µM): 0.508 | relative viability (COR-L23; first compound 0.4 µM): 0.681 | relative viability (COR-L23; first compound 1.265 µM): 0.476 | relative viability (EKVX; first compound 0.04 µM): 1.13 | relative viability (EKVX; first compound 0.1265 µM): 0.891 | relative viability (EKVX; first compound 0.4 µM): 0.927 | relative viability (EKVX; first compound 1.265 µM): 0.676 | relative viability (HARA; first compound 0.04 µM): 0.985 | relative viability (HARA; first compound 0.1265 µM): 1.04 | relative viability (HARA; first compound 0.4 µM): 1.02 | relative viability (HARA; first compound 1.265 µM): 0.763 | relative viability (HCC-15; first compound 0.04 µM): 0.845 | relative viability (HCC-15; first compound 0.1265 µM): 0.79 | relative viability (HCC-15; first compound 0.4 µM): 0.633 | relative viability (HCC-15; first compound 1.265 µM): 0.339 | relative viability (HCC-44; first compound 0.04 µM): 0.764 | relative viability (HCC-44; first compound 0.1265 µM): 0.823 | relative viability (HCC-44; first compound 0.4 µM): 0.812 | relative viability (HCC-44; first compound 1.265 µM): 0.577 | relative viability (HCC-827; first compound 0.04 µM): 0.88 | relative viability (HCC-827; first compound 0.1265 µM): 0.95 | relative viability (HCC-827; first compound 0.4 µM): 0.897 | relative viability (HCC-827; first compound 1.265 µM): 0.724 | relative viability (LK-2; first compound 0.04 µM): 0.31 | relative viability (LK-2; first compound 0.1265 µM): 0.202 | relative viability (LK-2; first compound 0.4 µM): 0.291 | relative viability (LK-2; first compound 1.265 µM): 0.198 | relative viability (NCI-H1437; first compound 0.04 µM): 1.03 | relative viability (NCI-H1437; first compound 0.1265 µM): 0.959 | relative viability (NCI-H1437; first compound 0.4 µM): 0.874 | relative viability (NCI-H1437; first compound 1.265 µM): 0.839 | relative viability (NCI-H1666; first compound 0.04 µM): 1.03 | relative viability (NCI-H1666; first compound 0.1265 µM): 0.991 | relative viability (NCI-H1666; first compound 0.4 µM): 0.812 | relative viability (NCI-H1666; first compound 1.265 µM): 0.365 | relative viability (NCI-H1792; first compound 0.04 µM): 0.959 | relative viability (NCI-H1792; first compound 0.1265 µM): 0.994 | relative viability (NCI-H1792; first compound 0.4 µM): 1.03 | relative viability (NCI-H1792; first compound 1.265 µM): 0.891 | relative viability (NCI-H1975; first compound 0.04 µM): 0.999 | relative viability (NCI-H1975; first compound 0.1265 µM): 1.04 | relative viability (NCI-H1975; first compound 0.4 µM): 0.923 | relative viability (NCI-H1975; first compound 1.265 µM): 0.767 | relative viability (NCI-H23; first compound 0.04 µM): 0.689 | relative viability (NCI-H23; first compound 0.1265 µM): 0.598 | relative viability (NCI-H23; first compound 0.4 µM): 0.482 | relative viability (NCI-H23; first compound 1.265 µM): 0.484 | relative viability (NCI-H358; first compound 0.04 µM): 0.633 | relative viability (NCI-H358; first compound 0.1265 µM): 0.579 | relative viability (NCI-H358; first compound 0.4 µM): 0.512 | relative viability (NCI-H358; first compound 1.265 µM): 0.352 | relative viability (NCI-H441; first compound 0.04 µM): 0.601 | relative viability (NCI-H441; first compound 0.1265 µM): 0.907 | relative viability (NCI-H441; first compound 0.4 µM): 0.689 | relative viability (NCI-H441; first compound 1.265 µM): 0.525 | relative viability (NCI-H596; first compound 0.04 µM): 1 | relative viability (NCI-H596; first compound 0.1265 µM): 1.09 | relative viability (NCI-H596; first compound 0.4 µM): 0.909 | relative viability (NCI-H596; first compound 1.265 µM): 1 | relative viability (NCI-H650; first compound 0.04 µM): 0.762 | relative viability (NCI-H650; first compound 0.1265 µM): 0.844 | relative viability (NCI-H650; first compound 0.4 µM): 0.561 | relative viability (NCI-H650; first compound 1.265 µM): 0.465 | relative viability (NCI-H838; first compound 0.04 µM): 0.794 | relative viability (NCI-H838; first compound 0.1265 µM): 0.952 | relative viability (NCI-H838; first compound 0.4 µM): 0.848 | relative viability (NCI-H838; first compound 1.265 µM): 0.88 | relative viability (SK-MES-1; first compound 0.04 µM): 0.942 | relative viability (SK-MES-1; first compound 0.1265 µM): 1.01 | relative viability (SK-MES-1; first compound 0.4 µM): 0.953 | relative viability (SK-MES-1; first compound 1.265 µM): 0.774
